No end group written: not given here.
What was measured:
[1] = test system: anti-g10 serum; test: Competition for immunoprecipitation of [32P] D10 RNA by anti-g10 serum; type: binding, rabbit; conditions: FIG. 5A (125 mg competitor) and FIG. 5B (g10 peptide 37-444 nM)
Description: [^32P] labeled in vitro transcribed D10 RNA or [^35S] labeled in vitro translated g10 fusion protein (g10-U1A) was immunoprecipitated by the anti-g10 serum in the presence of various competitors. D10 RNA and g10 fusion protein bound in the immunoprecipitations were analyzed using denaturing polyacrylamide gels and autoradiography. Panel A: D10 RNA immunoprecipitations with: 1, no competitor; 2, no g10 antiserum added; 3, 125 mg of g10 peptide; 4, 125 mg of bovine serum albumin; 5, 125 mg of control peptide (sequence ETPEEREERRR) (SEQ ID NO:7). Panel B: D10 immunoprecipitations after incubation with increasing amounts of g10 peptide. Lanes: 1, no competitor; 2, 37 nM; 3, 74 nM; 4, 148 nM; 5, 222 nM; 6, 444 nM. Panel C: immunoprecipitations of a g10 containing fusion protein (g10-U1-A) using various competitors. Lanes: 1, no competitor; 2, preimmune rabbit serum; 3, 7.4 nM g10 peptide; 4, 0.7 nM D10 RNA; 5, 0.7 nM unrelated RNA (cDNA encoding loop sequence: ACGTTCGTCG)(SEQ ID NO:8). Panel D: immunoprecipitation of g10-U1A fusion protein after incubation with increasing amounts of D10 RNA. Lanes: 1, no competitor; 2, 0.0175 nM; 3, 0.035 nM; 4, 0.35 nM; 5, 0.7 nM; 6, 1.05 nM.
Competition experiments were performed by addition of the various competitors to [^32P] labeled RNA or [^35S] labeled in vitro translated g10-snRNP-A fusion protein prior to immunoprecipitation. Bound RNAs were analyzed on 6% denaturing acrylamide gels and proteins on 10% SDS-PAGE gels, followed by autoradiography. Antibody-RNA complexes were formed in the presence of competitor g10 peptide or control peptide (FIG. 5A), or with increasing amounts of g10 peptide (FIG. 5B), and uncompeted RNA was recovered by immunoprecipitation.

[2] = test system: g10-reactive antibodies (anti-g10 serum); test: Competition for immunoprecipitation of [35S] g10-U1-A fusion protein by anti-g10 serum; type: binding, rabbit; conditions: FIG. 3B lanes 8-12; g10 peptide 27.8-750 nM; control peptide 25 mM
Text: (§1) Panel A: Western blot of E. coli extracts containing various U1-A protein constructs. All extracts were produced from induced E. coli cells containing recombinant pET-8c T7 expression vectors in accordance with known techniques. See F. Studier et al., Meth. Enzym. 185, 60-89 (1991). U1-A cDNA was cloned into pET-8c either attached or not attached to the g10 peptide. Lanes: 1, 5 and 9: the pET-8c vector alone; 2, 6 and 10: g10-U1-A protein; 3, 7 and 11: U1-A protein; 4, 8 and 12: total HeLa cell extracts. Lanes 1-4 were probed with pre-immune rabbit serum; lanes 5-8 were probed with anti-g10 serum; and lanes 9-12 were probed with a U1/U2-specific autoimmune serum (patient). EW reacts with U1 RNA, U1-70K (70 kDa), U1-A (31 kDa) and U2-A′ (28.4 kDa) (lane 12). Panel B: Immunoprecipitation and competition analysis of [^35S]-methionine-labeled U1-A and g10-U1-A proteins expressed by in vitro transcription, and subsequent translation in rabbit reticulocyte lysates. Lanes: 1 and 2 show the amount of U1-A and g10-U1-A translation product, respectively, added to each immunoprecipitation reaction; 3: blank; 4 and 5: U1-A and g10-U1-A precipitated with serum EW (reactive with U1-A); 6 and 7: U1-A and g10-U1-A, respectively, precipitated with anti-g10 serum. In lanes 8-12, g10-U1-A was precipitated with anti-g10 serum in the presence of varying amounts of competitors as follows: lanes 8-11 contained the g10 peptide at concentrations of 27.8, 83.3, 250 and 750 nM, respectively; lane 12 contained a control peptide (sequence GKSRGFAFVEFK-amide) (SEQ ID NO:4) at a concentration of 25 mM. The faint lower band in all lanes represents either a degradation product or a premature translation termination product and is seen consistently in U1-A translations.
[^32P] labeled in vitro transcribed D10 RNA or [^35S] labeled in vitro translated g10 fusion protein (g10-U1A) was immunoprecipitated by the anti-g10 serum in the presence of various competitors. D10 RNA and g10 fusion protein bound in the immunoprecipitations were analyzed using denaturing polyacrylamide gels and autoradiography. […]

[3] = test system: anti-g10 serum; test: Immunoprecipitation of [35S]-labeled in vitro translated proteins with anti-g10 serum; type: binding, rabbit; conditions: FIG. 3B lanes 6-7
Text: as §1, with “In lanes 8-12, g10-U1-A was precipitated with anti-g10 serum in the presence of varying amounts of competitors as follows: lanes 8-11 contained the g10 peptide at concentrations of 27.8, 83.3, 250 and 750 nM, respectively; lane 12 contained a control peptide (sequence GKSRGFAFVEFK-amide) (SEQ ID NO:4) at a concentration of 25 mM. The faint lower band in all lanes represents either a degradation product or a premature translation termination product and is seen consistently in U1-A translations.” left out

[4] = test system: U1/U2-specific autoimmune serum (patient); test: Western blot probed with control anti-U1-A autoimmune serum (patient); type: binding, human; conditions: FIG. 3A lanes 9-12
Text: as §1
(§2) A thirteen amino acid peptide was synthesized representing the amino-terminus of g10-fusion proteins expressed from the Studier T7 expression vectors (F. Studier et al., Meth. Enzym. 185, 60-89 (1991)) (peptide sequence: MASMTGGQQMGRC-carboxyl amide (SEQ ID NO:11), purchased from Multiple Peptide Systems). […]

[5] = test system: anti-g10 serum; test: Western blot of E. coli / HeLa extracts probed with anti-g10 serum; type: binding, rabbit; conditions: FIG. 3A lanes 5-8; serum diluted 1:2000
Text: as §1, §2

Row | inhibition of anti-g10 antibody binding to g10-U1-A by free peptide [2] | Substance | effect of competitor on D10 RNA precipitation by the anti-g10 serum [1] | precipitation by anti-g10 serum (immunoprecipitation) [3] | reactivity with control anti-U1-A serum in Western blot [4] | reactivity with anti-g10 serum in Western blot [5]
1 | inhibited | MASMTGGQQMGRC-carboxyl amide (MASMTGGQQMGRC-NH2) [g10 peptide, reference compound] | inhibited RNA binding |  |  | 
2 |  | g10-U1-A fusion protein: g10-tagged U1-snRNP A protein |  | precipitated | reacted | reacted
3 |  | recombinant U1-A: U1-A protein expressed without the g10 peptide |  | not | reacted | not
4 |  | authentic HeLa cell U1-A: endogenous U1-A (31 kDa) in total HeLa cell extracts |  |  | reacted | not
5 |  | bovine serum albumin: bovine serum albumin used as control competitor | neither bovine serum albumin nor an unrelated peptide showed any effect |  |  | 
6 |  | ETPEEREERRR [unrelated peptide] | neither bovine serum albumin nor an unrelated peptide showed any effect |  |  | 

Reference: patent US6582902B1, “Method for deriving epitopes” (priority 1992, dated 2003)
